Source: patent US20130143929A1, “FUNGICIDAL IMIDAZOLES” (EI DU PONT DE NEMOURS AND COMPANY, priority 2010, published 2013)
Marks after values point to notes of the source that are not given here.

Experiments:
Assay type in all cases: in vivo
[1] = system: Blumeria graminis f. sp. tritici (also known as Erysiphe graminis f. sp. tritici, the causal agent of wheat powdery mildew); test: Test D: wheat powdery mildew, preventive spray on wheat seedlings, visual disease rating; conditions: wheat powdery mildew, preventive spray on wheat seedlings
Method in brief: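 Compound suspended in acetone/water (50/50) with 250 ppm Trem 014 and sprayed to run-off on wheat seedlings (200 ppm ≈ 800 g/ha), then inoculated next day with spore dust. Disease rated visually after 8 days at 20 °C as % control relative to untreated plants (0-100).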

[2] = system: Septoria tritici (the causal agent of wheat leaf blotch); test: Test B: wheat leaf blotch, preventive spray on wheat seedlings, visual disease rating; conditions: wheat leaf blotch, preventive spray on wheat seedlings
Method in brief: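 Wheat seedlings sprayed to run-off with compound suspension (acetone/water with 250 ppm Trem 014; 200 ppm ≈ 800 g/ha, some at 40 ppm), inoculated next day with Septoria tritici spores. 48 h saturated humidity at 24 °C, then 19 days at 20 °C; visual rating, 100 = full control.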

[3] = system: Botrytis cinerea (the causal agent of tomato Botrytis); test: Test C: tomato Botrytis, preventive spray on tomato seedlings, visual disease rating; conditions: tomato Botrytis, preventive spray on tomato seedlings
Method in brief: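 Test suspension (acetone/water with 250 ppm Trem 014; 200 ppm equivalent to 800 g/ha) sprayed to run-off on tomato seedlings; B. cinerea spores inoculated next day. After 48 h saturated humidity at 20° C then 3 days at 24° C, disease rated visually as % control relative to untreated controls (0–100).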

[4] = system: Puccinia recondite f. sp. tritici (the causal agent of wheat leaf rust); test: Test A: wheat leaf rust, preventive spray on wheat seedlings, visual disease rating; conditions: wheat leaf rust, preventive spray on wheat seedlings
Method in brief: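 Wheat seedlings were sprayed to run-off with compound suspended in acetone/water containing 250 ppm Trem 014 (200 ppm ≈ 800 g/ha; some at 40 ppm). Puccinia recondite spores were inoculated the next day. Plants were held 24 h saturated at 20° C, then 7 days at 20° C, and disease control was rated visually on a 0–100 scale against controls.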

[5] = asterisk: 40 ppm test suspension
[6] = no asterisk (standard test suspension concentration, not 40 ppm)

Row | Structure (SMILES) | Test D rating (100 = 100% disease control, 0 = no disease control relative to the controls) [1, 5] | Test B rating (100 = 100% disease control, 0 = no disease control relative to the controls) [2, 5] | Test C rating (100 = 100% disease control, 0 = no disease control relative to the controls) [3, 5] | Test A rating (100 = 100% disease control, 0 = no disease control relative to the controls) [4, 5] | Test D rating (100 = 100% disease control, 0 = no disease control relative to the controls) [1, 6] [%] | Test B rating (100 = 100% disease control, 0 = no disease control relative to the controls) [2, 6] [%] | Test C rating (100 = 100% disease control, 0 = no disease control relative to the controls) [3, 6] [%] | Test A rating (100 = 100% disease control, 0 = no disease control relative to the controls) [4, 6] [%]
1 | OC(c1ccc(F)cc1F)c1c(Br)nc(Br)n1-c1c(F)cc(Cl)cc1F (centres unmarked) [compound 123] | 0* % | 100* % | 95* % | 98* % | – | – | – | –
2 | OC(c1ccc(F)cc1F)c1c(Br)nc(Cl)n1-c1c(F)cc(Cl)cc1F (centres unmarked) [compound 124] | 0* % | 100* % | 100* % | 100* % | – | – | – | –
3 | OC(c1ccc(F)cc1F)c1c(Cl)nc(Br)n1-c1c(F)cc(Cl)cc1F (centres unmarked) [compound 125] | 79* % | 100* % | 100* % | 100* % | – | – | – | –
4 | Cc1nc(Br)c(C(O)c2ccc(F)cc2F)n1-c1c(F)cc(Cl)cc1F (centres unmarked) [compound 126] | 0* % | 100* % | 0* % | 96* % | – | – | – | –
5 | Cc1nc(Cl)c(C(O)c2ccc(F)cc2F)n1-c1c(F)cc(Cl)cc1F (centres unmarked) [compound 127] | 0* % | 100* % | 73* % | 100* % | – | – | – | –
6 | Cc1nc(Cl)c(C(O)c2c(F)cc(F)cc2F)n1-c1ccc(F)cc1Cl (centres unmarked) [compound 128] | – | – | – | – | 0 | 100 | 99 | 100
7 | Cc1nc(Cl)c(C(O)c2ccc(F)cc2Cl)n1-c1ccc(F)cc1Cl (centres unmarked) [compound 129] | – | – | – | – | 0 | 100 | 98 | 100
8 | Cc1nc(Cl)c(C(O)c2ccc(F)cc2Cl)n1-c1ccc(F)cc1Br (centres unmarked) [compound 130] | – | – | 87* % | – | 0 | 100 | – | 99
9 | Cc1nc(Cl)c(C(O)c2ccc(F)cc2F)n1-c1c(F)cccc1F (centres unmarked) [compound 131] | 99* % | 100* % | 99* % | 100* % | – | – | – | –
10 | Cc1ncc(C(O)c2ccc(F)cc2)n1-c1c(F)cccc1F (centres unmarked) [compound 132] | – | – | – | – | 0 | 100 | 41 | 99
11 | Cc1nc(Br)c(C(O)c2ccc(F)cc2)n1-c1c(F)cccc1F (centres unmarked) [compound 133] | 64* % | 100* % | 100* % | 100* % | – | – | – | –
